The subject of one data set is HCV Core protein. The conditions noted are these: for core protein expression, reduced to % of control RzBR1 transduced cells: GCV-resistant cells, remaining level relative to control RzBR1. The procedure: Upon construction of the retroviral vector pLHPM a cassette translating the HCV Core protein via the HCV IRES was placed into the 3′ part of the LTR transcript. Thereby, cells transduced with the library or single Rz candidates could be analyzed for the HCV Core protein expression by Western blotting. Western blotting was performed on protein lysates using an enhanced chemiluminescent blotting detection kit (Novex), and anti-HCV core monoclonal antibody (6C7 provided by Harry Greenberg, Stanford University). Blots were exposed to film and band intensities measured using a phosphoimager and ImageQuant software. […] Band volumes of HCV Core protein in Western blotting were analyzed by densitometry, normalized towards beta-actin and expressed as percentage relative to the control (RzBR1).

The next data set has as its system HCV IRES. Description: Ratio of Core protein to RNA transcript as indicator of HCV IRES translational activity. The class given is cell-based, Hepatitis C virus. The conditions noted are these: GCV resistant colonies, compared with control Rz BR1. An excerpt:
However, to eliminate differences in expression of the retroviral transcript (harboring the 5′ UTR Core transcript) between different Rz vector transduced cells, we used the ratio between expressed Core protein and RNA transcript levels as an indicator of HCV IRES translational activity.

In data set [1] the target is Herpes simplex virus thymidine kinase (HSV-tk) (Human herpesvirus 1, UniProt P0DTH5). The conditions noted are these: cited from earlier work.
The subject of another data set is HeLa 5′tk cells. Put plainly: GCV-mediated cell killing of HSV-tk expressing HeLa 5′tk cells. It is filed as cell-based. An excerpt:
The Hela cell line used in these experiments was modified with a bicistronic reporter gene that confers hygromycin B resistance and GCV […]. The bicistronic reporter gene pHyg-5′tk was constructed with the SV40 promoter driving the expression of hygromycin B phosphotransferase and the 5′ untranslated region of HCV (nucleotides (nt) 38-341) upstream of HSV thymidine kinase (HSV-tk, see FIG. 1). The 5′ nontranslated region of hepatitis C virus (HCV) functions as an internal ribosome entry site (IRES) and is essential for translation of HCV proteins. Transcription of the 5′ nontranslated region allows for IRES-mediated translation of HSV-tk, which converts GCV to the monophosphate which is further metabolized to the triphosphate a cytotoxic analog of GTP. […]
Translation of HSV-tk-mediated by HCV 5′UTR (cap-independent, HCV nucleotides 38-341) was confirmed by Western blotting analysis of the tk protein. […] The functional activity of tk was determined by administration of GCV to the cell culture medium. […] To confirm that tk expression was mediated by HCV IRES and not from read-through translation of the hygromycin gene, two control plasmids were generated that were identical to the parental, except for deletion of part of the 5′UTR necessary for IRES function. […]

The test system of a further data set is untransfected HeLa cells. Description: GCV application to untransfected HeLa cells or cells expressing Core protein in place of tk. It is filed as cell-based. The note with it: GCV 10-100 uM. Here is the method:
Translation of HSV-tk-mediated by HCV 5′UTR (cap-independent, HCV nucleotides 38-341) was confirmed by Western blotting analysis of the tk protein. The vector was designed such that the authentic HCV Core protein translation start site (AUG at position 342 of the viral RNA) serves as the translation initiation site for the tk gene. The functional activity of tk was determined by administration of GCV to the cell culture medium. […] To confirm that tk expression was mediated by HCV IRES and not from read-through translation of the hygromycin gene, two control plasmids were generated that were identical to the parental, except for deletion of part of the 5′UTR necessary for IRES function. A reporter cell line was generated by electroporation of HeLa cells with pHyg-5′tk and selected with 250 μg/ml hygromycin. Single cell clones of stable HSV-tk expressing cells (HeLa 5′tk cells) were obtained according to standard limited dilution cloning techniques and functionally characterized for GCV-mediated cell killing.

For data set [2], the system named is LTR-Core and HSV-tk transcripts. Put plainly: Northern blotting of LTR-Core, HSV-tk and GAPDH transcripts. It is filed as cell-based. The note with it: normalized to GAPDH, relative to control Rz transduced 5′tk cells. Here is the method:
To assure that the observed reductions in Core protein were not caused by reduced levels of RNA transcript, Northern blotting analysis was performed on […] extracted from stable Rz expressors after GCV selection. Total RNA (15 μg per lane) extracted from cultures at 80% confluency was separated by formaldehyde/1% agarose gel electrophoresis and transferred to nylon membrane. The RNAs were probed for different parts of the two vector derived transcripts expressed in these cells: probes were directed against the tk part of the bicistronic transcript or against the Core portion of the retroviral vector transcript respectively. −^32P dCTP labelled probes were hybridized to the membrane in Quickhyb solution (Stratagene) at 65° C. After washing in 2×SSC/0.1%SDS and exposure to film, quantitation of signal was achieved by phosphimager analysis and computer-assisted denistometry as for the Western procedure. Levels of LTR-Core (4.8 kb) and HSV-tk (2.8 kb) transcripts were normalized to signals derived from GAPDH and expressed as percentage of the signal obtained from control Rz transduced 5′tk cells.

Sequence of Herpes simplex virus thymidine kinase (HSV-tk) (P0DTH5 whole entry): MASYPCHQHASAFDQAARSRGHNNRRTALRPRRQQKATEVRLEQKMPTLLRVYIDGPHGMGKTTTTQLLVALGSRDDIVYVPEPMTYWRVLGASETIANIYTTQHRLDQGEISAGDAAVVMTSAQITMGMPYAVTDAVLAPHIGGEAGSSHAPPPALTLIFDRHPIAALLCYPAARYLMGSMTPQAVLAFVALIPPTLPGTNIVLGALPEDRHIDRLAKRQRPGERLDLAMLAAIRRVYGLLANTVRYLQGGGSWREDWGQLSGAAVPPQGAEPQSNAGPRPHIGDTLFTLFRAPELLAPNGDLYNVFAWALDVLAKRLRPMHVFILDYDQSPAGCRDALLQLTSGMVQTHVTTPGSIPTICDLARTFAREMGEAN

As for “HCV6: hairpin ribozyme, SEQ ID NO:52; targets human eIF2Bγ mRNA (TTCTTATTAGAAAGCTACCAGAGAAACACACGTTGTGGTACATTACCTGGTA; chemistry not given here)”, the “core protein expression, reduced to % of control RzBR1 transduced cells” value with HCV Core protein came to 52%. The “reduction of HCV IRES-dependent translatability (ratio Core protein/RNA transcript)” value with HCV IRES stood at 83%.

`O=c1[nH]c(=O)n([C@@H]2O[C@H](CO)[C@@H](O)[C@@H]2F)cc1I` [FIAU, 1-(2″-deoxy-2′-fluoro-1-β-D-arabinofuranosyl-5-ido)uracil]: in data set [1], the “better substrate for HSV-tk compared to mammalian tk” value is recorded as “about 1000 fold”.

On to “HCV4: hairpin ribozyme, SEQ ID NO:50; binding sequence partially matches gamma subunit of human eIF2 (CTAACTTTAGAAACTAACCAGAGAAACACACGTTGTGGTACATTACCTGGTA; chemistry not given here)”, for which the “core protein expression, reduced to % of control RzBR1 transduced cells” value in the data set with HCV Core protein turned out to be 42%. In the data set on HCV IRES, the “reduction of HCV IRES-dependent translatability (ratio Core protein/RNA transcript)” value was 76%.

Regarding `Nc1nc(O)c2ncn(COC(CO)CO)c2n1` [GCV, [9-(1,3-dihydroxy-2-propoxy)methly] guanine], the “cell death on continuous GCV application” value in the data set on HeLa 5′tk cells (continuous GCV 10-100 uM, HSV-tk expressing HeLa cells) is recorded as “complete cell death”. Moreover, the “GCV killing of selected HeLa 5′tk clone” value in the data set on HeLa 5′tk cells (exposure to 20 uM GCV) is recorded as “completely killed”. In addition, in the data set with untransfected HeLa cells, the “effect of GCV application on tk-negative cells” value is reported as “remained unaffected”. Besides, in data set [1], the “better substrate for HSV-tk compared to mammalian tk” value is recorded as “about 1000 fold”.

On to “HCV8: hairpin ribozyme conferring GCV resistance, SEQ ID NO:54 (AGCCGAGGAGAATCCCACCAGAGAAACACACGTTGTGGTACATTACCTGGTA; chemistry not given here)”, for which the “decrease (reduction) in Core protein compared to control Rz transduced cells” value with HCV Core protein (GCV resistant colonies, normalized to beta-actin, relative to control RzBR1) stood at 95%. Moreover, the “reduction of Core transcript” value in data set [2] was 20%.

The values are drawn from patent US6808876B1, “Cellular regulators of infectious agents and methods of use” (Immusol, Inc., priority 2000, dated 2004).
